# Assay results taken from patent US20040033251A1, “Active agent delivery system including a polyurethane, medical device, and method” (Medtronic, Inc., priority 2002, published 2004).
# Tests used:
# [1] = Merck Index 13 edit.; cited from earlier work
# [2] = Dissolution of coumarin from PL75D/TP blend cap-coated shims in PBS; assay type: physicochemical; conditions: PL75D/TP cap coats over TL/coumarin base coat, 37° C., FIG. 8
# Experimental: PL75D was dried at 70° C. at reduced pressure overnight. The dried pellets were compressed between two plates that were pre-heated to 230° C. and maintained for about 5 minutes. After the sample was cooled down to room temperature, it was placed in a vial filled with THF and stirred until dissolved (by visual observation). TP and TL were directly dissolved in THF by stirring the mixtures at room temperature. Coumarin was also dissolved in THF. The concentrations of all the solutions were about 1 wt-%. TL solution and coumarin solution were mixed at a weigh ratio of 1:1. This mixture is the base coating solution of a reservoir system. TP solution and PL75D solution were mixed at various weight ratios to make five different mixtures with the weight ratios of TP to PL75D being 100:0, 75:25, 50:50, 25:75, and 0:100. […]
# Dissolution of coumarin from the cap-coated shims was conducted by placing the coated shims in glass vials that contained phosphate buffered saline solution (PBS, potassium phosphate monobasic (NF tested), 0.144 grams per liter (g/L), sodium chloride (USP tested), 9 g/L, and sodium phosphate dibasic (USP tested) 0.795 g/L, pH=7.0 to 7.2 at 37° C., purchased from HyClone, Logan, Utah). […] The concentration of coumarin in all these solutions was measured with a liquid chromatography (HP 1090) that was equipped with a UV detector. […]
structure (smiles),measurement,setting,value
O=c1ccc2ccccc2o1 [Coumarin],Volume of cold water in which one gram dissolves,[1],400 mL
same,Release rate versus cap coat composition,[2],release much faster from a 100% PL75D coated shim than that from 100% TP coated shim
